Measurements taken from the CheMixHub viscosity set.

Experiment: xn = mol fraction of the nth substance listed

Cc1cccc(C)n1 + CO
101 kPa
Details | viscosity [mPa·s]
298.01 K, x1 = 0.1115 | 0.705
298.12 K, x1 = 0.2763 | 0.857
298.18 K, x1 = 0.4001 | 0.912
298.18 K, x1 = 0.5482 | 0.909
298.19 K, x1 = 0.8449 | 0.846
298.24 K, x1 = 0.2399 | 0.823
298.29 K, x1 = 0.7013 | 0.891
303.08 K, x1 = 0.1115 | 0.655
303.15 K, x1 = 0.8449 | 0.789
303.17 K, x1 = 0.2763 | 0.793
303.21 K, x1 = 0.2399 | 0.763
303.21 K, x1 = 0.4001 | 0.85
303.24 K, x1 = 0.7013 | 0.828
303.25 K, x1 = 0.5482 | 0.84
308.08 K, x1 = 0.1115 | 0.613
308.18 K, x1 = 0.8449 | 0.737
308.19 K, x1 = 0.2763 | 0.739
308.24 K, x1 = 0.5482 | 0.782
308.25 K, x1 = 0.2399 | 0.71
308.26 K, x1 = 0.7013 | 0.774
312.95 K, x1 = 0.2399 | 0.662
313.15 K, x1 = 0.1115 | 0.572
313.22 K, x1 = 0.8449 | 0.691
313.25 K, x1 = 0.2763 | 0.688
313.27 K, x1 = 0.4001 | 0.729
313.33 K, x1 = 0.7013 | 0.725
318.22 K, x1 = 0.1115 | 0.535
318.28 K, x1 = 0.8449 | 0.65
318.32 K, x1 = 0.2399 | 0.617
318.33 K, x1 = 0.2763 | 0.643
318.33 K, x1 = 0.4001 | 0.682
318.35 K, x1 = 0.5482 | 0.688
318.38 K, x1 = 0.7013 | 0.68

CC(=O)c1ccccc1 + CCOC(C)=O
viscosity [mPa·s], 100 kPa
Details | x1 = 0.0775 | x1 = 0.1574 | x1 = 0.2396 | x1 = 0.3244 | x1 = 0.4119 | x1 = 0.5021 | x1 = 0.5953 | x1 = 0.6915 | x1 = 0.7909 | x1 = 0.8937
303.15 K | 0.4772 | 0.5756 | 0.6734 | 0.7711 | 0.8688 | 0.9666 | 1.064 | 1.162 | 1.26 | 1.358
313.15 K | 0.424 | 0.5047 | 0.5856 | 0.6665 | 0.7474 | 0.8284 | 0.9093 | 0.9902 | 1.071 | 1.152
323.15 K | 0.374 | 0.4427 | 0.5114 | 0.5801 | 0.6488 | 0.7175 | 0.7862 | 0.8549 | 0.9236 | 0.9923

CC(=O)c1ccccc1 + COC(=O)c1ccccc1
viscosity [mPa·s], 101 kPa
Details | x2 = 0.0946 | x2 = 0.1898 | x2 = 0.2861 | x2 = 0.386 | x2 = 0.4823 | x2 = 0.5819 | x2 = 0.6825 | x2 = 0.7877 | x2 = 0.8917
303.15 K | 1.527 | 1.558 | 1.588 | 1.611 | 1.608 | 1.606 | 1.6 | 1.593 | 1.614
313.15 K | 1.285 | 1.307 | 1.329 | 1.348 | 1.341 | 1.334 | 1.322 | 1.315 | 1.329

Cc1cccc(C)n1 + CCO
298.15 K, 101 kPa
Details | viscosity [mPa·s]
x1 = 0.0454 | 1.15
x1 = 0.09639 | 1.164
x1 = 0.2211 | 1.202
x1 = 0.3891 | 1.133
x1 = 0.6241 | 1.02
x1 = 0.8038 | 0.9686

CC(=O)c1ccccc1 + CCCCOC(C)=O
viscosity [mPa·s], 101 kPa
Details | x2 = 0.0904 | x2 = 0.1786 | x2 = 0.2746 | x2 = 0.37 | x2 = 0.4671 | x2 = 0.5675 | x2 = 0.672 | x2 = 0.7729 | x2 = 0.8848
298.15 K | 1.557 | 1.452 | 1.341 | 1.232 | 1.129 | 1.028 | 0.933 | 0.848 | 0.763
303.15 K | 1.405 | 1.312 | 1.212 | 1.115 | 1.024 | 0.934 | 0.849 | 0.772 | 0.696
308.15 K | 1.29 | 1.207 | 1.119 | 1.034 | 0.95 | 0.87 | 0.792 | 0.724 | 0.655
313.15 K | 1.188 | 1.112 | 1.032 | 0.954 | 0.877 | 0.804 | 0.734 | 0.671 | 0.608
